Columns and labels:
[1] = T1 estimated from series of heteronuclear 13C/1H double echo spectra of hyperpolarized equimolar lactate mixture; format: physicochemical; settings: 10 mM, multiple double echo spectra (FIG. 6)
Protocol: L-[1-^13C1] lactate was hyperpolarized using the DMSO preparation described in (Chen, A. P., et al. Feasibility of using hyperpolarized [1-C-13] lactate as a substrate for in vivo metabolic C-13 MRSI studies. Magnetic Resonance Imaging 26, 721-726 (2008)) with added Gd^3+. Briefly, 70 mg of a ˜50% w/w sodium L-[1-^13C1] lactate solution (0.31 mmol) (Sigma Aldrich, Gillingham, UK) is added to 27 mg DMSO (0.36 mmol) (Sigma Aldrich, Gillingham, UK), 2 mg OX 63 radical (1.4 μmol)(GE Healthcare) and 2.7 mg of a 50 mmol/L solution of Dotarem Gd^3+ chelate (Guerbet, Roissy, France). For in vitro experiments, one third of the resulting solution is polarised to the maximum at the optimal microwave frequency. Once the polarisation is at a maximum, the dissolution is performed with 6 mL of a 40 mmol/L Tris based buffer (pH=7.6) with added 100 mg/L EDTA. The final concentration of hyperpolarised L-[1-^13C1] lactate is then approximately 17 mmol/L. Acquisition of hetero-nuclear ^13C/^1H double echo spectra (TE=300 ms), with and without a 180° ^1H pulse, gave the spectra shown in FIG. 4.
An equimolar mixture of L-[1-^13C1] lactate and L-[1-^13C1, 2-^2H1] lactate was prepared and polarized to ˜26+/−0.5% (n=2). The final lactate concentration in the NMR tube was 10 mM.
Spectra were acquired with and without the 180° ^1H pulse. […]

[2] = 13C T1 and T2 relaxation of non-polarized lactate samples (10 mM) at 9.4 T; format: physicochemical
Protocol: For FIG. 3, the samples contained 10 mM of either L-[1-^13C1, 2-^2H1] lactate or L-[1-^13C1] lactate (non-polarized). The T1 of the deuterated lactate was 55.8+/−2.2 s (n=1) and the T2 1.33+/−0.10 s (n=4) and the T1 of the C2 protonated lactate was 46.9+/−4.0 s (n=1) and the T2 1.49+/−0.13 s (n=2) (at 9.4 T). Heteronuclear ^13C/^1H double echo spectra were acquired using a 10 μs 90° ^13C pulse, a 5 ms adiabatic 180° ^13C pulse (bandwidth ˜2 kHz) and a 10 ms adiabatic ^1H pulse (bandwidth ˜1 kHz), which was centered on either the C2 or C3 lactate proton resonances (FIG. 2B). The TR was 20 s. Initial dummy scans produced a steady state z magnetization. The spectral bandwidth was 8 kHz and data were collected into 2048 complex points. Phase and amplitude corrected peak integrals for the lactate ^13C resonance were measured. The echo time is equivalent to 2τ.

Row | Structure (SMILES) | estimated T1 [1] [s] | T1 [2] [s] | T2 [2] [s]
1 | [2H][C@@](C)(O)[13C](=O)O [L-[1-^13C1,2-^2H1] lactate, L-[1-^13C, 2-^2H] Lactate] | 27 | 55.8 ± 2.2 | 1.33 ± 0.10
2 | C[C@H](O)[13C](=O)[O-].[Na+] [L-[1-^13C1] lactate, Sodium L-[1-^13C1] lactate] | 25 | 46.9 ± 4.0 | 1.49 ± 0.13

Source: US9408925B2, “Hyperpolarized lactate contrast agent for determination of LDH activity” (GE Healthcare Limited, priority 2010, dated 2016)
